Data taken from patent US20110318426A1, “ANTIBACTERIAL AGENT AND METHOD OF USING THE SAME” (OSAKA MUNICIPAL TECHNICAL RESEARCH INSTITUTE, priority 2009, published 2011).

Columns and labels:
Type in all cases: cell-based
[1] = tested on: Pseudomonas aeruginosa (IAM11514); test: MIC determination test (growth by absorbance at 620 nm)
Protocol: (§1) Then, the suspensions were centrifuged (5800×g, 30 min), whereby supernatants were obtained.
(§2) In each of the obtained LB culture media containing the antibacterial agents, 1 μL of Escherichia coli (IF03972), Staphyloccocus aureus (IAM112082), Pseudomonas aeruginosa (IAM11514), or Bacillus subtilis (IFO3215), which are microorganisms generally used in the evaluation of antibacterial properties, was inoculated and cultured at 27° C. for 5 days. Microplates (96-well microplates, available Falcon) were used for the culturing of the microorganisms, and the growth of the microorganisms was checked by determination of absorbance at 620 nm with a microplate reader (Multisckan Ascent available from Labsystems). As the microorganisms to be inoculated, those prepared as follows were used: microorganisms of each type were cultured under agitation at 27° C. for 18 hours in a 5 mL of an ordinary bouillon culture medium (available from Eiken Chemical Co., Ltd.), then, 1 mL of the same was sampled and centrifuged at 10000 rpm for 5 minutes, sediments were suspended in 1 ml of a 0.85% saline solution, and the suspension was diluted to 100 times.
as §1
(§3) In each of the obtained LB culture media containing the antibacterial agents, 1 μL of Staphyloccocus aureus or Bacillus subtilis was inoculated and cultured at 27° C. for 5 days. Microplates (96-well microplates, available Falcon) were used for the culturing of the microorganisms, and the growth of the microorganisms was checked by determination of absorbance at 620 nm with a microplate reader (Multisckan Ascent available from Labsystems). As the microorganisms to be inoculated, those prepared as follows were used: microorganisms of each type were cultured under agitation at 27° C. for 18 hours in a 5 mL of an ordinary bouillon culture medium (available from Eiken Chemical Co., Ltd.), then, 1 mL of the same was sampled and centrifuged at 10000 rpm for 5 minutes, sediments were suspended in 1 ml of a 0.85% saline solution, and the suspension was further diluted to 100 times.
as §1

[2] = tested on: Staphyloccocus aureus (IAM112082); test: as above
Protocol: as §1, §2, §1, §3, §1

[3] = tested on: Bacillus subtilis (IFO3215); test: as above
Protocol: as §1, §2, §1, §3, §1

[4] = tested on: Escherichia coli (IF03972); test: as above
Protocol: as §1, §2, §1, §3, §1

Escherichia coli = test: Bactericidal effect determination test (viable count, pour plate method); conditions: for count of viable Escherichia coli: detection limit
Protocol: as §1
(§4) An Escherichia coli suspension, 20 μL, was added to each of the obtained LB culture media containing the antibacterial agents, whereby liquids for use in the bactericidal effect determination test were obtained. The liquids were sampled, 50 μL each, at the start, one hour later, three hours later, and 24 hours later, and each sample was added to 4.95 mL of a LP diluent. Each resultant was diluted at four steps, ten times each, and the count of viable bacteria in 1 mL of each diluted liquid was determined by the pour plate method. The Escherichia coli suspension used was a suspension obtained by culturing Escherichia coli under agitation at 27° C. for 18 hours in a 5 mL of an ordinary bouillon culture medium (available from Eiken Chemical Co., Ltd.), then, sampling 1 mL of the same and centrifuging the sample at 10000 rpm for 5 minutes, thereafter, suspending sediments in 1 ml of a 0.85% saline solution, and diluting the same to 10 times.
The suspension was agitated at 30° C. for 18 hours. Then, the suspension was centrifuged (5800×g, 30 min), whereby a supernatant, i.e., an LB culture medium containing an antibacterial agent, was prepared.
as §4, with “to” for “to each of”, “medium” for “media”, “agent,” for “agents,”, “liquid was” for “liquids were”, “start, 0.25 hour later,” for “start,”, “eight” for “24”

## O.O.O.O.O.O=S(=O)([O-])[O-].[Cu+2] [copper ions, copper sulfate pentahydrate]
[1]
  antibacterial property when phosphorus-adsorbing material was mixed: did not improve
[2]
  antibacterial property when phosphorus-adsorbing material was mixed: improved
[3]
  antibacterial property when phosphorus-adsorbing material was mixed: improved
[4]
  antibacterial property when phosphorus-adsorbing material was mixed: did not improve

## O=[N+]([O-])[O-].[Ag+] [silver ions, silver nitrate]
[4]; 0.5 to 1% (W/V) of allophane contained
  MIC of silver ions: 0.5 µg/mL
[4]; 2% (W/V) of allophane contained
  MIC of silver ions: 0.125 µg/mL
[4]; 4% (W/V) of allophane contained
  MIC of silver ions: 0.0313 µg/mL
[4]; allophane not contained
  MIC of silver ions: about 1 mg/L
Escherichia coli; silver ions 1 mg/L, 1% (W/V) of allophane
  viable Escherichia coli observed: only few Escherichia coli were observed
Escherichia coli; silver ions 1 mg/L, 4% (W/V) of regenerated collagen powder
  count of viable Escherichia coli: < 1000 cfu/ml
Escherichia coli; silver ions 1 mg/L, 4% or more of allophane
  count of viable Escherichia coli: < 1000 cfu/ml
Escherichia coli; silver ions 1 mg/L, allophane 0% (W/V), time 0 h
  Count of viable bacteria: 10,800,000 cfu/mL
Escherichia coli; silver ions 1 mg/L, allophane 0% (W/V), time 1 h
  Count of viable bacteria: 14,900,000 cfu/mL
Escherichia coli; silver ions 1 mg/L, allophane 0% (W/V), time 3 h
  Count of viable bacteria: 3,930,000 cfu/mL
Escherichia coli; silver ions 1 mg/L, allophane 0% (W/V), time 24 h
  Count of viable bacteria: 95,000,000 cfu/mL
Escherichia coli; silver ions 1 mg/L, allophane 1% (W/V), time 0 h
  Count of viable bacteria: 10,800,000 cfu/mL
Escherichia coli; silver ions 1 mg/L, allophane 1% (W/V), time 1 h
  Count of viable bacteria: 52,000 cfu/mL
Escherichia coli; silver ions 1 mg/L, allophane 1% (W/V), time 3 h
  Count of viable bacteria: 3,500 cfu/mL
Escherichia coli; silver ions 1 mg/L, allophane 1% (W/V), time 24 h
  Count of viable bacteria: 2,600 cfu/mL
Escherichia coli; silver ions 1 mg/L, allophane 4% (W/V), time 0 h
  Count of viable bacteria: 10,800,000 cfu/mL
Escherichia coli; silver ions 1 mg/L, allophane 4% (W/V), time 1 h
  Count of viable bacteria: 1,100 cfu/mL
Escherichia coli; silver ions 1 mg/L, allophane 4% (W/V), time 3 h
  Count of viable bacteria: 1,000 or less cfu/mL
Escherichia coli; silver ions 1 mg/L, allophane 4% (W/V), time 24 h
  Count of viable bacteria: 1,000 or less cfu/mL
Escherichia coli; silver ions 1 mg/L, allophane 8% (W/V), time 0 h
  Count of viable bacteria: 10,800,000 cfu/mL
Escherichia coli; silver ions 1 mg/L, allophane 8% (W/V), time 1 h
  Count of viable bacteria: 1,000 or less cfu/mL
Escherichia coli; silver ions 1 mg/L, allophane 8% (W/V), time 3 h
  Count of viable bacteria: 1,000 or less cfu/mL
Escherichia coli; silver ions 1 mg/L, allophane 8% (W/V), time 24 h
  Count of viable bacteria: 1,000 or less cfu/mL
Escherichia coli; silver ions 1 mg/L, regenerated collagen powder 0% (W/V), time 1 h
  Count of viable bacteria: 6.2 × 10^7 cfu/mL
Escherichia coli; silver ions 1 mg/L, regenerated collagen powder 0% (W/V), time 3 h
  Count of viable bacteria: 6.7 × 10^7 cfu/mL
Escherichia coli; silver ions 1 mg/L, regenerated collagen powder 0% (W/V), time 8 h
  Count of viable bacteria: 2.4 × 10^7 cfu/mL
Escherichia coli; silver ions 1 mg/L, regenerated collagen powder 0% (W/V), time […]
  Count of viable bacteria: 8.1 × 10^7 cfu/mL
Escherichia coli; silver ions 1 mg/L, regenerated collagen powder 4% (W/V), time 1 h
  Count of viable bacteria: 9.9 × 10^6 cfu/mL
Escherichia coli; silver ions 1 mg/L, regenerated collagen powder 4% (W/V), time 3 h
  Count of viable bacteria: 1.4 × 10^5 cfu/mL
Escherichia coli; silver ions 1 mg/L, regenerated collagen powder 4% (W/V), time 8 h
  Count of viable bacteria: ≤ 1.0 × 10^3 cfu/mL
Escherichia coli; silver ions 1 mg/L, regenerated collagen powder 4% (W/V), time […]
  Count of viable bacteria: 4.7 × 10^4 cfu/mL
Escherichia coli; silver ions 5 mg/L, 1% (W/V) or more of allophane
  count of viable Escherichia coli: < 1000 cfu/ml
Escherichia coli; silver ions 5 mg/L, allophane 0% (W/V), last time point (24 h, time cell misprinted)
  Count of viable bacteria: 1000 or less cfu/mL
Escherichia coli; silver ions 5 mg/L, allophane 0% (W/V), time 0 h
  Count of viable bacteria: 10,800,000 cfu/mL
Escherichia coli; silver ions 5 mg/L, allophane 0% (W/V), time 1 h
  Count of viable bacteria: 6,000,000 cfu/mL
Escherichia coli; silver ions 5 mg/L, allophane 0% (W/V), time 3 h
  Count of viable bacteria: 29,000 cfu/mL
Escherichia coli; silver ions 5 mg/L, allophane 1% (W/V), last time point (24 h, time cell misprinted)
  Count of viable bacteria: 1,000 or less cfu/mL
Escherichia coli; silver ions 5 mg/L, allophane 1% (W/V), time 0 h
  Count of viable bacteria: 10,800,000 cfu/mL
Escherichia coli; silver ions 5 mg/L, allophane 1% (W/V), time 1 h
  Count of viable bacteria: 1,000 or less cfu/mL
Escherichia coli; silver ions 5 mg/L, allophane 1% (W/V), time 3 h
  Count of viable bacteria: 1,000 or less cfu/mL
Escherichia coli; silver ions 5 mg/L, allophane 4% (W/V), last time point (24 h, time cell misprinted)
  Count of viable bacteria: 1,000 or less cfu/mL
Escherichia coli; silver ions 5 mg/L, allophane 4% (W/V), time 0 h
  Count of viable bacteria: 10,800,000 cfu/mL
Escherichia coli; silver ions 5 mg/L, allophane 4% (W/V), time 1 h
  Count of viable bacteria: 1,000 or less cfu/mL
Escherichia coli; silver ions 5 mg/L, allophane 4% (W/V), time 3 h
  Count of viable bacteria: 1,000 or less cfu/mL
Escherichia coli; silver ions 5 mg/L, allophane 8% (W/V), last time point (24 h, time cell misprinted)
  Count of viable bacteria: 1,000 or less cfu/mL
Escherichia coli; silver ions 5 mg/L, allophane 8% (W/V), time 0 h
  Count of viable bacteria: 10,800,000 cfu/mL
Escherichia coli; silver ions 5 mg/L, allophane 8% (W/V), time 1 h
  Count of viable bacteria: 1,000 or less cfu/mL
Escherichia coli; silver ions 5 mg/L, allophane 8% (W/V), time 3 h
  Count of viable bacteria: 1,000 or less cfu/mL

## O.O.O.O.O.O.O.O=S(=O)([O-])[O-].[Zn+2] [zinc ions, zinc sulfate heptahydrate]
[1]
  antibacterial property when phosphorus-adsorbing material was mixed: did not improve
[2]
  MIC decrease relative to no allophane (fraction): about ⅛
  antibacterial property when phosphorus-adsorbing material was mixed: improved
[3]
  antibacterial property when phosphorus-adsorbing material was mixed: improved
[4]
  antibacterial property when phosphorus-adsorbing material was mixed: did not improve
